{"source": "paper PMC10794144", "about": "“A novel antibiotic class targeting the lipopolysaccharide transporter” (Nature, 2024)", "key": {"[1]": {"assay": "GSH adduct", "type": "in vitro ADME"}, "[2]": {"system": "E. coli ATCC 25922", "assay": "microbe, parasite or virus in culture", "details": "Escherichia coli, ATCC25922", "summary_of_the_method": "(§1)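 MIC was taken as the lowest concentration without visible growth, or past which OD600 no longer fell. Testing followed CLSI M07 and M100 broth microdilution, using 0.5 McFarland-derived inocula in CAMHB (LB for A. baylyi isolates).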"}, "[3]": {"system": "A. baumannii", "assay": "microbe, parasite or virus in culture", "summary_of_the_method": "as §1"}}, "data": [{"smiles": "CN1C(=O)[C@H](CCCCN)NC(=O)[C@H](CCCN)NCc2cccnc2Sc2c(Cl)ccc(-c3ccc(C(=O)O)cc3)c2CNC(=O)[C@@H]1Cc1c[nH]c2ccccc12", "note": "[RO7202110]", "values": [{"measurement": "GSH adduct", "setting": "[1]", "value": "Clean"}, {"measurement": "MIC", "setting": "[2]", "value": "> 64", "unit": "µg/mL"}, {"measurement": "MIC range", "setting": "[3]; 10 MDR isolates, CAMHB, MCPs read at 80% growth inhibition", "value": "≤0.06 − 0.12 mg l^−1"}, {"measurement": "MIC90", "setting": "[3]; Acinetobacter baumannii", "value": 0.12, "unit": "µg/mL"}, {"measurement": "MIC", "setting": "[3]; Acinetobacter baumannii, ATCC17978, ATCC 17978, CAMHB, one replicate, MCPs read at 80% growth inhibition", "value": "≤ 0.06", "unit": "µg/mL"}, {"measurement": "MIC", "setting": "[3]; Acinetobacter baumannii, ATCC19606, ATCC 19606, CAMHB, MCPs read at 80% growth inhibition", "value": "≤ 0.06", "unit": "µg/mL"}]}]}
